The source made the active and inactive calls. The calls are words filed in the database; no cut-off is given here.
Experiments:
[1] = biological target: T1, Lysine-specific demethylase 4D (Homo sapiens, UniProt Q6B0I6); assay: Inhibition of KDM4D (unknown origin)
T1 sequence (Q6B0I6 whole entry): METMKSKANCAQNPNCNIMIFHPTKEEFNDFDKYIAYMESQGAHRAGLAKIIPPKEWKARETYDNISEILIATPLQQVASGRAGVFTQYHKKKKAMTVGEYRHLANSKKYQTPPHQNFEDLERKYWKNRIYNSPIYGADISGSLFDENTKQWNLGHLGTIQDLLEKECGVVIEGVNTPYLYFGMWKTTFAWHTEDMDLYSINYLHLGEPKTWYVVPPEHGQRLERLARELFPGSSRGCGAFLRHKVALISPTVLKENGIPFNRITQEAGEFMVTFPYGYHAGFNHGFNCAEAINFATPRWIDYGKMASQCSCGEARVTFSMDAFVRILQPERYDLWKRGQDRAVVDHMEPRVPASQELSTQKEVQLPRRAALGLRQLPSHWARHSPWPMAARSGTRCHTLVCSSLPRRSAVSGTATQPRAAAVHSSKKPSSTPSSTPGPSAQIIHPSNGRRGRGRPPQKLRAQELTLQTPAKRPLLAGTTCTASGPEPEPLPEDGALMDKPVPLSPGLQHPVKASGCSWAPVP

[2] = biological target: T2, Lysine-specific demethylase 4D (Homo sapiens) (UniProt Q6B0I6); assay: Inhibition of human KDM4D expressed in Escherichia coli BL21 (DE3) at 1 uM using biotinylated H3-derived peptide and 2-OG as substrate preincubated for 15 mins followed by substrate addition and measured after 1 hr by AlphaLISA assay; conditions: time 75.0 min
T2 sequence (whole entry): T1 sequence (Q6B0I6 whole entry)

HCT-116 [3] = assay: Antiproliferative activity against human HCT-116 cells assessed as reduction in cell viability measured after 72 hrs by MTT assay; assay type: functional, cell-based; conditions: HCT-116, 72 h
SW-620 [4] = assay: Antiproliferative activity against human SW-620 cells assessed as reduction in cell viability measured after 72 hrs by MTT assay; assay type: functional, cell-based; conditions: SW-620, 72 h
SW480 [5] = assay: Antiproliferative activity against human SW480 cells assessed as reduction in cell viability measured after 72 hrs by MTT assay; assay type: functional, cell-based; conditions: SW480, 72 h
A549 = assay: Antiproliferative activity against human A549 cells assessed as reduction in cell viability measured after 72 hrs by MTT assay; assay type: functional, cell-based
NCI-H1792 = assay: Antiproliferative activity against human NCI-H1792 cells assessed as reduction in cell viability measured after 72 hrs by MTT assay; assay type: functional, cell-based
HepG2 = assay: Antiproliferative activity against human HepG2 cells assessed as reduction in cell viability measured after 72 hrs by MTT assay; assay type: functional, cell-based
Huh-7 = assay: Antiproliferative activity against human Huh-7 cells assessed as reduction in cell viability measured after 72 hrs by MTT assay; assay type: functional, cell-based
SMMC-7721 = assay: Antiproliferative activity against human SMMC-7721 cells assessed as reduction in cell viability measured after 72 hrs by MTT assay; assay type: functional, cell-based
DU-145 = assay: Antiproliferative activity against human DU-145 cells assessed as reduction in cell viability measured after 72 hrs by MTT assay; assay type: functional, cell-based
FaDu = assay: Antiproliferative activity against human FaDu cells assessed as reduction in cell viability measured after 72 hrs by MTT assay; assay type: functional, cell-based
HeLa = assay: Antiproliferative activity against human HeLa cells assessed as reduction in cell viability measured after 72 hrs by MTT assay; assay type: functional, cell-based
HCT-116 [6] = assay: Inhibition of colony formation in human HCT-116 cells incubated for 7 days by crystal violet staining based assay; assay type: functional, cell-based; conditions: dose 2.5-10 µM, time 7.0 day
SW-620 [7] = assay: Inhibition of colony formation in human SW-620 cells incubated for 7 days by crystal violet staining based assay; assay type: functional, cell-based; conditions: dose 2.5-10 µM, time 7.0 day
SW480 [8] = assay: Inhibition of colony formation in human SW480 cells incubated for 7 days by crystal violet staining based assay; assay type: functional, cell-based; conditions: dose 2.5-10 µM, time 7.0 day
HCT-116 [9] = assay: Inhibition of cell migration in human HCT-116 cells at 10 uM incubated for 36 hrs by wound healing assay; assay type: functional
HCT-116 [10] = assay: Inhibition of cell migration in human HCT-116 cells at 20 uM incubated for 36 hrs by wound healing assay; assay type: functional
HCT-116 [11] = assay: Inhibition of cell migration in human HCT-116 cells by crystal violet staining based transwell assay; assay type: functional; conditions: dose 2.5-10 µM
[12] = biological target: T2, Lysine-specific demethylase 4D (Homo sapiens); assay: Inhibition of GST-tagged KDM4D (unknown origin) expressed in Escherichia coli DH5alpha assessed as histone demethylation activity using H3K9me3 as substrate incubated for 4 hrs in presence of FLAG-histone H3 measured by Western blot analysis; conditions: dose 2.5-20 µM
[13] = biological target: T2, Lysine-specific demethylase 4D (Homo sapiens); assay: Inhibition of KDM4D in human HCT-116 cells assessed as reduction in Gli1 protein expression incubated for 48 hrs measured by Western blot analysis; assay type: cell-based; conditions: dose 2.5-20 µM
[14] = biological target: T2, Lysine-specific demethylase 4D (Homo sapiens); assay: Inhibition of KDM4D in human HCT-116 cells assessed as reduction in beta-catenin protein expression incubated for 48 hrs measured by Western blot analysis; assay type: cell-based; conditions: dose 2.5-20 µM
[15] = biological target: T2, Lysine-specific demethylase 4D (Homo sapiens); assay: Inhibition of KDM4D in human HCT-116 cells assessed as reduction in c-myc protein expression incubated for 48 hrs measured by Western blot analysis; assay type: cell-based; conditions: dose 2.5-20 µM
[16] = Inhibition of KDM7B (unknown origin) by AlphaLISA assay; design: species or system Homo sapiens
HCT-116 [17] = assay: Inhibition of cell migration in human HCT-116 cells incubated for 12 to 36 hrs by wound healing assay; assay type: functional, cell-based; conditions: dose 10-20 µM, time lower 12.0 hrs, time upper […]
HCT-116 [18] = assay: Inhibition of cell migration in human HCT-116 cells at 10 to 20 uM by wound healing assay; assay type: functional, cell-based; conditions: dose 10-20 µM, time lower 12.0 hrs, time upper […], TDE = time-dependent effect
HCT-116 [19] = assay: Downregulation of KDM4D expression in human HCT-116 cells at 2.5 to 20 uM incubated for 48 hrs measured by Western blot analysis; assay type: functional, cell-based; conditions: dose 2.5-20 µM

Compound: Clc1ccc(N/N=C(\c2ccccc2)c2ccccn2)nc1
- IC50 [1]: 0.29 µM

Compound: CC(C)(C)OC(=O)N[C@@H]1CCN(C(c2ccc(-c3ccncc3)cc2)c2cc3c(cc2O)OCO3)C1 (some centres not stated)
- inhibition [2]: 99.5%
- IC50 (HCT-116 [3]): 10.7 µM
- IC50 (SW-620 [4]): 19.2 µM
- IC50 (SW480 [5]): 10.7 µM
- Activity (A549): Active
- Activity (NCI-H1792): Active
- Activity (HepG2): Active
- Activity (Huh-7): Active
- Activity (SMMC-7721): Active
- Activity (DU-145): Active
- Activity (FaDu): Active
- Activity (HeLa): Active
- inhibition (HCT-116 [6]): Dose-Dependent Effect
- inhibition (SW-620 [7]): Dose-Dependent Effect
- inhibition (SW480 [8]): Dose-Dependent Effect
- inhibition at 10 µM (HCT-116 [9]): 42.4%
- inhibition at 20 µM (HCT-116 [10]): 94.1%
- inhibition (HCT-116 [11]): Dose-Dependent Effect
- inhibition [12]: Dose-Dependent Effect
- inhibition [13]: Dose-Dependent Effect
- inhibition [14]: Dose-Dependent Effect
- inhibition [15]: Dose-Dependent Effect
- IC50 [16]: 82.7 µM
- inhibition (HCT-116 [17]): Dose-Dependent Effect
- inhibition (HCT-116 [18]): Tde
- inhibition (HCT-116 [19]): Active

From ChEMBL document CHEMBL4831501, “Discovery of a potent and selective inhibitor of histone lysine demethylase KDM4D” (Eur J Med Chem, 2021)
